From patent publication US6391888B1, “Topical anesthetics useful for treating cancer” (Mayo Foundation for Medical Education and Research, priority 1999, dated 2002)

Assays:
PKCδ = PKCδ (Homo sapiens, UniProt Q05655); test: lidocaine binding to and modulation of PKCδ (applicant's discovery, no method given); type: biochemical; conditions: calcium independent PKC isozyme PKCδ; qualitative statement
[1] = tested on: calcium-activated, phospholipid-dependent protein kinase (PKC); conditions: data suggesting; M. K. Tomoda et al., 1990; cited from earlier work

Chain of PKCδ (Q05655 whole entry): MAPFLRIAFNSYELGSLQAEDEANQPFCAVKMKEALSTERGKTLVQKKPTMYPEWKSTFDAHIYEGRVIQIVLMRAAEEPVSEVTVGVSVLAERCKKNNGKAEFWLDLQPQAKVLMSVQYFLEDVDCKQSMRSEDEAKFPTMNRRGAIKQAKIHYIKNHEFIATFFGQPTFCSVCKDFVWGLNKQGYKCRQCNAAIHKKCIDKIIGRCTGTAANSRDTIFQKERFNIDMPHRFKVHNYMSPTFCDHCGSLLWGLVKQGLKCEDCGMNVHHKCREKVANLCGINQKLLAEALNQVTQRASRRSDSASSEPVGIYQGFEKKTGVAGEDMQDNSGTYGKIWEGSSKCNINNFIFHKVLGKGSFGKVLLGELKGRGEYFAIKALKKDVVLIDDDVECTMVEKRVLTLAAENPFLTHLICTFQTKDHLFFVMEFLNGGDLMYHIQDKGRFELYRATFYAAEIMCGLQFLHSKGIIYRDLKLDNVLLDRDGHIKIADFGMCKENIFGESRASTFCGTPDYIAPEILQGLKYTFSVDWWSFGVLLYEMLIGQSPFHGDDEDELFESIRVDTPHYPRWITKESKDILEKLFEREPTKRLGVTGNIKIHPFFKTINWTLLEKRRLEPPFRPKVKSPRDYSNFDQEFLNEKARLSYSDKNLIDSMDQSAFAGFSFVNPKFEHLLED

## CCN(CC)CC(=O)Nc1c(C)cccc1C [lidocaine, (2-diethylamino)-N-(2,6-dimethylphenyl)-acetamide]
PKCδ
  binding to and modulation of the effects of PKCδ: binds to and modulates (e.g. inhibits)
[1]
  inhibition of calcium-activated, phospholipid-dependent protein kinase (PKC): inhibits
